Laboratory results from patent US12171755B2, “PAPD5 inhibitors and methods of use thereof” (Children's Medical Center Corporation, priority 2017, dated 2024).

Target: T1, PAPD5 (Homo sapiens, UniProt Q8NDF8)
T1 construct: made in house
Experiment: High-throughput luminescence (KinaseGlo) RNA polyadenylation assay, ATP utilization by recombinant PAPD5
Assay type: biochemical
Conditions: for Fold-change determined at compound concentration 33 μM / Fold-change determined at compound concentration 100 μM / Fold-change determined at compound concentration 10 μM: Table 4 (entries of Table 5), ratio of luminescence with inhibitor to DMSO; for Fold-change determined at compound concentration 33 μM: 33 μM compound; for Fold-change determined at compound concentration 100 μM: higher = higher inhibition; for Fold-change determined at compound concentration 10 μM: 10 μM compound
Description: Optimal conditions for an in vitro RNA polyadenylation assay using recombinant PAPD5, ATP and an oligonucleotide substrate were identified. The HTS assay involved ATP utilization by PAPD5, which reads out as a decreased luminescence signal produced by luciferase (KinaseGlo, Promega, Madison, WI).
100 nl of compound dissolved in DMSO was transferred to each well of the assay plate via pin transfer. For negative control wells, DMSO alone was added. Plates were gently vortexed for 5 seconds, then incubated for 2 hours at room temperature.
After 2 hours, 5 ul of luciferase (Promega KinaseGlo, Madison, WI) was added using a MultiDrop Combi (Thermo Fisher Scientific, Waltham, MA). The mixture was gently vortexed for 5 seconds and incubated for 10 minutes at room temperature. Plates were spun for 1 minute prior to luminescence measurements. Luminescent measurements were quantitated using a PerkinElmer EnVision™ plate reader.
˜100,000 compounds from various libraries at the ICCB-Longwood were screened in this manner in duplicate.
The fold change was the ratio of luminescence from a sample with inhibitor compared to that with DMSO. Thus, a higher number indicates higher inhibition.

T1 sequence (Q8NDF8 68-698 isoform Q8NDF8-5): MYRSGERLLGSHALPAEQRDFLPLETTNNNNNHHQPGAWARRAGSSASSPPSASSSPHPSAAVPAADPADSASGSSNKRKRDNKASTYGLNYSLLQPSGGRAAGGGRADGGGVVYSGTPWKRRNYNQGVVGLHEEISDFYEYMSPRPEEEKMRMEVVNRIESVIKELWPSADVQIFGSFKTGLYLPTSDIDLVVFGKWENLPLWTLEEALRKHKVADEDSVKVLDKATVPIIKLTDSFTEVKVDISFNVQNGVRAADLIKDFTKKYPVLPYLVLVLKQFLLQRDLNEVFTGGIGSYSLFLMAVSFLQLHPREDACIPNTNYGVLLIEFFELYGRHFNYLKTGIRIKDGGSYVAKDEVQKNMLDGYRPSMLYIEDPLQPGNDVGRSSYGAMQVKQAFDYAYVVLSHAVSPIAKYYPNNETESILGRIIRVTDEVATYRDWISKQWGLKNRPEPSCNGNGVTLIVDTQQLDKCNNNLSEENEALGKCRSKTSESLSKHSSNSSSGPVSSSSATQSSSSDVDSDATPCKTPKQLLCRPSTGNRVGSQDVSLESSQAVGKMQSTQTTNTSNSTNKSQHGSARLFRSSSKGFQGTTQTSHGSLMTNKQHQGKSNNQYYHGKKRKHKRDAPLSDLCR

Compound	Fold-change determined at compound concentration 33 μM	Fold-change determined at compound concentration 100 μM (100 μM compound)	fold change at 100 μM concentration in the assay (100 μM compound)	Fold-change determined at compound concentration 10 μM
3-{7-Oxo-2.8.10- triazatricyclo[7.4.0.02,6]trideca- 1(13),3,5,9,11-pentaen-8-yl}propionic acid [Entry 68]	1.162	1.389	–	–
O=C(O)C1CC(=O)N(Cc2ccc3c(c2)OCO3)C1 (stereo not shown) [1-(1,3-benzodioxol-5-ylmethyl)-5-oxopyrrolidine-3-carboxylic acid]	–	–	3.9	–
Cc1csc(-c2cc(S(=O)(=O)Nc3cc(C)nc4ccccc34)c(C)s2)n1 [Entry 29, 2-methyl-N-(2-methylquinolin-4-yl)-5-(4-methyl-1,3-thiazol-2-yl)thiophene-3-sulfonamide]	1.073	1.22	–	–
Nc1c2ccccc2nc2ccccc12 [Entry 30, acridin-9-amine]	1.313	1.944	–	–
CCCCN(C)c1cc(C(=O)O)c2cc(NC(=O)c3ccccc3OC)ccc2n1 [Entry 31, 2-[butyl(methyl)amino]-6-[(2-methoxybenzoyl)amino]quinoline-4-carboxylic acid]	1.304	1.895	–	–
O=C(O)c1cccc(Nc2ncnc3ccc(Br)cc23)c1 [Entry 32, 3-[(6-bromoquinazolin-4-yl)amino]benzoic acid]	1.114	1.236	–	–
Nc1nc(N2CCCC2)nc2ccccc12 [Entry 33, 2-(1-pyrrolidinyl)-4-quinazolinamine]	1.175	1.505	–	–
OCCN(CCO)c1nc(N2CCCCC2)c2nc(N(CCO)CCO)nc(N3CCCCC3)c2n1 [Entry 34, 2,2′,2″,2″′-((4,8-Di(piperidin-1-yl)pyrimido[5,4-d]pyrimidine-2,6-diyl)bis(azanetriyl))tetraethanol]	1.098	1.212	–	–
O=C(O)C1CCCN(c2ncnc3c2oc2ccccc23)C1 (stereo not shown) [Entry 35, 1-[1]benzofuro[3,2-d]pyrimidin-4-ylpiperidine-3-carboxylic acid]	1.04	1.287	–	–
O=C(NCc1ccncc1)C1CCCN(c2ncnc3c2oc2ccccc23)C1 (stereo not shown) [Entry 36, 1-([1]benzofuro[3,2-d]pyrimidin-4-yl)-N-(pyridin-4-ylmethyl)piperidine-3-carboxamide]	1.096	1.239	–	–
O=C(NCc1ccccn1)C1CCCN(c2ncnc3c2oc2ccccc23)C1 (stereo not shown) [Entry 37, 1-([1]benzofuro[3,2-d]pyrimidin-4-yl)-N-(pyridin-2-ylmethyl)piperidine-3-carboxamide]	1.077	1.218	–	–
Cc1ccc(-n2c(N3CCCC(C(=O)O)C3)nc3ccsc3c2=O)cc1 (stereo not shown) [Entry 38, 1-[3-(4-methylphenyl)-4-oxo-3,4-dihydrothieno[3,2-d]pyrimidin-2-yl]piperidine-3-carboxylic acid]	1.207	1.631	–	–
O=C(O)C1CCCN(c2nc3c(-c4ccccc4)csc3c(=O)[nH]2)C1 (stereo not shown) [Entry 39, 1-(4-oxo-7-phenyl-3,4-dihydrothieno[3,2-d]pyrimidin-2-yl)piperidine-3-carboxylic acid]	1.19	1.527	–	–
CC(C)c1nnc2ccc(N3CCN(C)CC3)nn12 [Entry 50, 3-isopropyl-6-(4-methylpiperazino)[1,2,4]triazolo[4,3-b]pyridazine]	1.336	2.083	–	–

More lines, now with the values ahead:

Fold-change determined at compound concentration 33 μM	Fold-change determined at compound concentration 100 μM (100 μM compound)	fold change at 100 μM concentration in the assay (100 μM compound)	Fold-change determined at compound concentration 10 μM	Compound
1.079	1.328	–	–	CC(C)C(CO)Nc1nc(Nc2ccc(C(=O)O)c(Cl)c2)c2ncn(C(C)C)c2n1 (stereo in doubt) [Entry 46, 2-chloro-4-[[2-[[(2R)-1-hydroxy-3-methylbutan-2-yl]amino]-9-propan-2-ylpurin-6-yl]amino]benzoic acid]
1.589	2.956	–	–	COc1ccc(Nc2ncnc3sc(C(=O)O)c(C)c23)cc1OC [Entry 40, 4-(3,4-dimethoxyanilino)-5-methylthieno[2,3-d]pyrimidine-6-carboxylic acid]
1.621	2.279	–	1.249	c1cc(CNc2ncnc3sc4c(c23)CCCC4)ccn1 [Entry 41, N-(pyridin-4-ylmethyl)-5,6,7,8-tetrahydro[1]benzothieno[2,3-d]pyrimidin-4-amine]
1.905	2.528	–	1.382	COc1ccc(-c2nc(N3CCOCC3)c3sc(CN(C)c4ncc(C(=O)NO)cn4)cc3n2)cn1 [Entry 42, N-hydroxy-2-[[2-(6-methoxypyridin-3-yl)-4-morpholin-4-ylthieno[3,2-d]pyrimidin-6-yl]methyl-methylamino]pyrimidine-5-carboxamide]
1.648	2.294	–	1.292	NC(=O)C1CCN(c2ncnc3sc4c(c23)CCCC4)CC1 [Entry 43, 1-(5,6,7,8-tetrahydro[1]benzothieno[2,3-d]pyrimidin-4-yl)piperidine-4-carboxamide]
1.273	1.651	–	–	NC(=O)C1CCN(c2nc3c(S(=O)(=O)c4ccccc4)nnn3c3ccsc23)CC1 [Entry 44, 1-(3-(phenylsulfonyl)thieno[2,3-e][1,2,3]triazol[1,5-a]pyrimidin-5-yl)piperidine-4-carboxamide]
1.429	1.936	–	–	c1cc(CNc2nc(C3CC3)nc3c2CCC3)ccn1 [Entry 45, N-(2-cyclopropyl-6,7-dihydro-5H-cyclopenta[d]pyrimidin-4-yl)-N-(4-pyridylmethyl)amine]
1.095	1.393	–	–	CC(C)n1cnc2c(Nc3ccc(C(=O)O)cc3)nc(Cl)nc21 [Entry 47, 4-[(2-chloro-9-propan-2-ylpurin-6-yl)amino]benzoic acid]
1.105	1.318	–	–	O=S(=O)(Nc1ccc2nncn2n1)c1ccc(Br)cc1 [Entry 49, 4-bromo-N-([1,2,4]triazolo[4,3-b]pyridazin-6-yl)benzenesulfonamide]
1.242	1.825	–	–	O=S(=O)(Nc1ccc2nnc(-c3ccccc3)n2n1)c1ccc(Cl)cc1 [Entry 51, 4-chloro-N-(3-phenyl-[1,2,4]triazolo[4,3-b]pyridazin-6-yl)benzenesulfonamide]
1.133	1.275	–	–	Clc1ccc(Nc2nnc(Cc3ccncc3)c3ccccc23)cc1 [Entry 52, N-(4-chlorophenyl)-4-(pyridin-4-ylmethyl)phthalazin-1-amine]
